According to patent US20230142739A1, “PROTEIN-PROTEIN INTERACTION STABILIZERS” (The Regents of the University of California, priority 2020, published 2023):
Values belong to the compound of their own block, whether it stands above or below them.

Assays:
[1] = target: T1, ER (Homo sapiens, UniProt P31947); assay: MS (KD,app), ER; assay type: binding; conditions: 24 hr incubation
[2] = target: T1, ER; assay: Fp (EC50)/fold-stabilization of peptide, ER; assay type: binding; conditions: 24 hr incubation
[3] = target: T2, 14-3-3σ(C42)/ERα-pp (Homo sapiens, UniProt P31947, C38N/N42C); assay: Fluorescence anisotropy, fragment titration to 14-3-3σ(C42) and fluorescein-ERα-pp; conditions: 1 μM 14-3-3σ(C42), 100 nM fluorescein-ERα-pp; read-out: EC50 (anisotropy, stabilization of ERα-pp binding)
T2 construct: with a truncated C-terminus after T231; His6 (N, cleaved yes); made in house; host or cells: E. coli NiCo21 (DE3), pPROEX HTb
Description: We observed the same trend when we titrated the fragments into a mixture of 1 μM 14-3-3σ(C42) and 100 nM fluorescein-ERα-pp, conditions under which half of the peptide was initially bound. […] The maximum effect was instantaneous at a saturating concentration (100 μM).
Fluorescence Anisotropy. […] Final DMSO concentration in the assay was always 1%. Dilution series of 14-3-3 protein or fragments were made in black, round-bottom 384-microwell plates (Corning) in a final sample volume of 10 μL in triplicates. Fluorescence anisotropy measurements were performed directly and after overnight incubation at room-temperature, using a Tecan Infinite F500 plate reader (filter set λex: 485±20 nm, λem: 535±25 nm). Data reported are at endpoint. EC50 values were obtained from fitting the data with a four-parameter logistic model (4PL) in GraphPad Prism 6.

[4] = target: T3, 14-3-3/Pin1_72 complex (Homo sapiens, UniProt P61981); assay: Cooperativity analysis, 14-3-3 titrations at varied constant fragment concentration; assay type: binding; conditions: 8 μM compound
T3 construct: the full length 14-3-3γ was dialysis against 25 mM HEPES pH 7.5; made in house; host or cells: E. coli BL21(DE3), pPROEX HTb
Source text: Cooperativity in ternary complex formation. In contrast to PPI inhibition, where affinity to one of the protein pockets is the driving force for drug development, design of molecular glues is driven by cooperative ternary complex formation. Both CC50 and SF values are concentration dependent values and might differ based on assay design. […] Cooperative complex formation is often accompanied by structural changes of the interface of a complex which translates to increased stability of the ternary com-plex. In order to assess cooperativity of the ternary complex, fragments 13, 23, 27 and 28 were selected for cooper-activity analysis. The α-factor of the fragments were determined using 14-3-3 titrations in the presence of varied, but constant concentration of fragment in a dose-dependent manner. […] Further, the interval of change in stabilization further describes the systems cooperative behaviour.
However, at higher concentration regimes significant assay interference was observed, probably due to compound aggregation. Fragments 23, 27 and 28 all reached saturation or approached saturation enabling accurate determination of α-factor. […] KD remains constant also at higher concentrations of FC-A, indicating non-specific effects.

[5] = target: T4, 14-3-3/ERα complex (Homo sapiens, UniProt P61981); assay: Selectivity screening FA, ERα peptide; assay type: binding
T4 construct: the full length 14-3-3γ was dialysis against 25 mM HEPES pH 7.5; made in house; host or cells: E. coli BL21(DE3), pPROEX HTb
T4 sequence (P61981 1-247): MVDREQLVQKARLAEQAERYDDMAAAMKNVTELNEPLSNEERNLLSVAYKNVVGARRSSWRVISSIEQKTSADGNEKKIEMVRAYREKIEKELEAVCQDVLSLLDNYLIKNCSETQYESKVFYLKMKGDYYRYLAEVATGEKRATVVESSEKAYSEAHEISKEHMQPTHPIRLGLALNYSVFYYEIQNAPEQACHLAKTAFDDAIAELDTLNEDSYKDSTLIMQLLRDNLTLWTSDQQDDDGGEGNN
Source text: Selectivity screening of covalent fragments. Drugging the hub protein 14-3-3 raises the challenge of selectivity. We hypothesized that the high level of cooperative behavior for 14-3-3/Pin1_72/28 complex is a function of the unique functionality and topology of the interface, specifically the +1 and +3 amino acid of Pin1_72 with the covalent fragment. We further rationalized that this cooperativity would likely translate to high selectivity. To test this hypothesis, fragments 13, 27 and 28 were screened at a single fragment concentration (100 μM) against a panel of 13 peptides as diverse representatives of 14-3-3 client proteins, differing in size and hydrophobicity of the +1 amino acid (FIG. 22A).
(§1) Fluorescence Anisotropy (FA) Assays.

[6] = target: 14-3-3/NFκBp65 peptide (Homo sapiens, UniProt P31947); assay: Fluorescence polarization assay, FITC-NFκBp65 peptide binding to 14-3-3 with increasing fragment
Source text: As the primary assays to test for binding and activity we used X-ray protein crystallography (crystal soaking) and a fluorescence polarization assay (FP) employing a fluorophore-labelled (FITC) version of the NFκBp65 peptide. After some rounds of analogues testing, we were able to identify the molecules' electrochemical properties that are enabling the lysine attach to the carbonyl feature of the fragment. […] This reflects a principal feature of orthosteric PPI stabilization which is based on the direct, simultaneous physical interaction of the stabilizer with both protein partners.
In addition to the hydrophobic interaction of the primary phenyl ring of TCF521-129 with the side chain of Ile46, the 2,6-dimethylmorpholine substituent sits on top of this side chain and additionally contacts with one of its methyl groups Pro47 and Gly48. The opposite methyl is engaging a hydrophobic patch in the ‘roof’ of the 14-3-3 groove comprised of Leu218, Ile219, and […] (FIG. 9B, upper row). […] The potential PPI stabilizing activity of both fragments were tested in a fluorescence polarization assay measuring the binding of a fluorescently-labelled (FITC) NFκBp65 peptide to 14-3-3 in the presence of an increasing concentration of the fragment.

[7] = target: T5, Pin1_72/14-3-3σΔC (Homo sapiens, UniProt P31947); assay: X-ray crystal soaking; assay type: binding; conditions: 10 mM fragment soak
T5 construct: The 14-3-3σ protein was C-terminally truncated (ΔC) after T231 to enhance crystallization; His6 (cleaved yes); made in house; host or cells: E. coli BL21(DE3), pPROEX HTb
Description: X-Ray Crystallography. […] B-Raf/14-3-3σΔC and Abl1/14-3-3σΔC crystals were grown in a sitting drop set up. […] All crystals were directly flash-frozen in liquid nitrogen and data acquisition took place at either the P11 beamline of […] campus, Hamburg, Germany) or i-03/i-24 beamline of the diamond light source (Oxford, UK) or in-house. Fragment screening was performed by crystal soaking, whereby a final concentration of 10 mM fragment was added to fully grown crystals (final DMSO ≤1%). The fragment/crystal mixtures incubated for seven days prior to data acquisition. The diffraction data were analyzed with […] pipeline and MolRep was used for phasing. For model refinement Coot, Refmac5 and phenix.refine were utilized in iterative cycles. The elbow software of the phenix suite was used for ligand preparation based on fragment SMILES. Figures were generated with PyMOL© (V2.0.6, Schrodinger LLC).

[8] = target: T6, Pin1_72/14-3-3γ (Homo sapiens, UniProt P61981+Q13526); assay: Fluorescence anisotropy protein titration, Pin1_72/14-3-3γ at constant compound; assay type: binding; conditions: based on internal DMSO control and 100 μM fragment
T6 construct: the full length 14-3-3γ was dialysis against 25 mM HEPES pH 7.5; made in house; host or cells: E. coli BL21(DE3), pPROEX HTb
Source text: Inspired by the binding poses of 3 and 9 we combined their structural features to improve stabilization. […] In case of complex stabilization, a left shift of apparent KD values is expected, here described as stabilization factors (SF).
as §1

T5 sequence (P31947 1-231 limits assumed, stated change not applied, other chains not shown): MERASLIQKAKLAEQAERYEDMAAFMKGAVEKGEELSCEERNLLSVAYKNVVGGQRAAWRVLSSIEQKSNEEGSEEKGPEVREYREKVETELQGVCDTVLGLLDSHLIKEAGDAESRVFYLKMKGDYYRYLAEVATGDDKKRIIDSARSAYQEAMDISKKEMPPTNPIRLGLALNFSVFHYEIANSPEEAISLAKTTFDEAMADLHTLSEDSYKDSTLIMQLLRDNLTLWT
T1 sequence (P31947 whole entry, other chains not shown): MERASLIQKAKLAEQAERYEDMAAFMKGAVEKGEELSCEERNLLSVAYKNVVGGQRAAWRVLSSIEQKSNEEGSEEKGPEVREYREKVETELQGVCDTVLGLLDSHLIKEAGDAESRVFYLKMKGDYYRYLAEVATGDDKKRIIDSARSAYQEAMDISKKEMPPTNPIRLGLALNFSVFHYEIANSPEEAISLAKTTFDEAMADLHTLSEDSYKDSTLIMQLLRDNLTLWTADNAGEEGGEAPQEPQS
Chain of 14-3-3/NFκBp65 peptide (P31947 whole entry, other chains not shown, the tested form may be a part): as the sequence (P31947 whole entry, other chains not shown) above
T2 sequence (P31947 1-231 C38N/N42C, other chains not shown): as the sequence (P31947 1-231 limits assumed, stated change not applied, other chains not shown) above, with C38N, N42C counted along it

Kd [1]: 84.3 µM
EC50 [2]: 38.9 µM
SMILES: CC(C)(Oc1ccc(Cl)cc1)C(=O)N1CCC(CNC(=O)CCl)CC1

Kd [1]: 33.7 µM
EC50 [2]: 32.7 µM
SMILES: CC(C)(Oc1ccc(Cl)cc1)C(=O)N1CCC(CCNC(=O)CCl)CC1

SMILES: C=CC(C)(C)OC[C@H]1O[C@H](O[C@@H]2C3=C([C@H](C)COC(C)=O)C[C@H](O)[C@]3(C)/C=C3/[C@@H](COC)CC[C@H]3[C@@H](C)[C@H]2O)[C@H](O)[C@@H](OC(C)=O)[C@@H]1O [FC-A, fusicoccane-A]
EC50 [3]: 0.216 µM

SMILES: C=CC(C)(C)OC[C@H]1O[C@H](O[C@@H]2C3=C([C@H](C)COC(C)=O)C[C@H](O)[C@]3(C)/C=C3/[C@@H](COC)CC[C@H]3[C@@H](C)[C@H]2O)[C@H](O)[C@@H](OC(C)=O)[C@@H]1O [FCA, Fusicoccin A, reference compound]
SF 8 μM [4]: ~10
stabilization of the 14-3-3/ERα complex [5]: 110 fold

PPI stabilizing activity ([6]; highest concentrations tested): only a very weak
SMILES: CC(=O)N1CCN(S(=O)(=O)c2ccc(C=O)cc2)CC1 [TCF521-123, 4-[(4-acetylpiperazin-1-yl)sulfonyl]benzaldehyde]

EC50 ([6]; read-out: EC50 (stabilizes interaction of peptide with 14-3-3)): 370 µM
SMILES: CC1CN(S(=O)(=O)c2ccc(C=O)cc2)CC(C)O1 (stereo not shown) [TCF521-129, 4-[(2,6-dimethylmorpholin-4-yl)sulfonyl]benzaldehyde]

PDB: electron density due to compound binding [7]: n. bind.
SMILES: O=Cc1ccc(-n2ccnc2-c2ccccc2)c(OC(F)(F)F)c1 [compound 20, 4-(2-phenyl-1H-imidazol-1-yl)-3-(trifluoromethoxy)benzaldehyde]

PDB: electron density due to compound binding [7]: n. bind.
SMILES: O=Cc1ccc(-n2ccnc2-c2ccccc2)c(Oc2ccccc2)c1 [compound 21, 3-phenoxy-4-(2-phenyl-1H-imidazol-1-yl)benzaldehyde]

SF (fold stabilization) [8]: 3.32
PDB: electron density due to compound binding [7]: n. bind
SMILES: O=Cc1ccc(-n2ccnc2-c2ccc(Br)cc2)cc1Br [compound 24, 2-bromo-4-(2-(4-bromophenyl)-1H-imidazol-1-yl)benzaldehyde]
